{"source": "patent US20020068365A1", "about": "“CONTROLLED RELEASE NITRIC OXIDE PRODUCING AGENTS” (priority 1998, published 2002)", "origin": "cited, not measured here", "key": {"[1]": {"conditions": "L-arginine free base"}, "[2]": {"conditions": "30 grams of L-arginine as an infusion"}}}
{"smiles": "N=C(N)NCCC[C@H](N)C(=O)O", "note": "[L-arginine]", "values": [{"measurement": "pH range", "setting": "[1]", "result": "10.5-12.0"}, {"measurement": "rise of circulating levels of L-arginine compared to baseline levels", "setting": "[2]", "result": "up to 100 fold"}]}
